What was measured:
human PBMCs = assay: Cytokine profile in human PBMCs ex vivo (ELISA); format: cell-based
Procedure: In the present ex vivo experiment, peripheral blood mononuclear cells (PBMCs) from six healthy donors were stimulated with free CpG-A, free CpG-B (7909) or ACM-CpG-B at increasing concentration (0.62, 1.25, 2.5 and 5 μM). Levels of IL-6 and IFNα secreted into culture supernatant was measured by ELISA. […] The ability to induce both cytokines was advantageous as they stimulate DCs to mature and B cells to proliferate and produce antibody, respectively.

C57BL/6 splenocytes = assay: Cytokine production by splenocytes in vitro (adjuvant activity); format: cell-based, mice; conditions: culture supernatant, approximately 20 h, 0.125-0.5 μM
Procedure: It is known that CpG can induce cytokine production by BALB/c splenocytes in vitro. In this experiment adjuvant effect of ACM polymersomes with CpG were studied. The experimental procedure included: • 1. Spleens harvested from three C57BL/6 mice • 2. 3 million splenocytes added to each well of 96-well plate in complete RPMI. • 3. The following treatment groups were used: untreated, free CpG, ACM-CpG and empty ACM, which were incubated approximately 20 h at 37° C. 5% C02. • 4. Collection of culture supernatants and measurement of IL-6 and IL-12p70 which are indicators of adjuvant effect. • 5. The following 96-well plate format was used for measurements (ms) carried out in triplicates (Table 1)

[1] = test system: classical dendritic cells (cDCs); assay: Activation of classical dendritic cells in inguinal lymph nodes after SC injection; format: in vivo, C57BL/6 mice; conditions: 5 μg SC, inguinal lymph nodes two days after
Procedure: Class B CpG binds endosomal Toll-like receptor 9 (TLR9) to induce several immunological effects, including activation of dendritic cells (DCs), production of pro-inflammatory cytokines and B cell differentiation and antibody secretion. These attributes make class B CpG valuable as a vaccine adjuvant. In this study, C57BL/6 mice were subcutaneously (SC) injected with 5 μg free murine CpG 1826 or ACM-CpG 1826 to compare their relative abilities to activate classical dendritic cells (cDCs). Two days after, inguinal lymph nodes (which drain the site of injection) were harvested to assess DC activation. […] Moreover, ACM polymersomes alone were non-immunogenic and thus enhanced DC activation was due to efficient delivery of CpG to endosomal TLR9.

C57bl/6 mice = assay: Immunization with OVA conjugated or encapsulated ACMs, sera tittering by ELISA (Example 13); format: in vivo; conditions: 4 μg of OVA per injection, sera 21 days after the boost
Procedure: C57bl/6 mice were immunized with different OVA formulations: PBS (negative control), free OVA with or without Sigma Adjuvant System (SAS), OVA encapsulated ACMs or OVA conjugated ACMs. Balb/c mice were immunized with different HA formulations: PBS (negative control), free HA, HA encapsulated ACMs or HA conjugated ACMs. […] All immunizations were performed with a same final amount of antigen within each trial: 5-10 μg OVA/injection/mouse or 100-200 ng HA/injection/mouse. Final bleeds were collected 42 days after prime. ELISA was then performed to assess titers: OVA or HA were coated onto MaxiSorp plates (1 μg/ml in carbonate buffer) overnight. Plates were blocked using 3% BSA in PBS for 1 h at RT. All sera were diluted at 1:100 and incubated on plates for 1 h at RT. After 3 washes with PBS+0.05% Tween 20, secondary antibody anti-mouse IgG HRP coupled was incubated at 1:10,000 dilution for 1 h, RT (room temperature). After 3 washes with PBS/Tween 20 buffer, TMB substrate was added and reaction was stopped using 1M HCl. Optical densities were quantified at 450 nm.
C57bl/6 mice were immunized with the following formulations: a negative control (PBS), free OVA with or without Sigma Adjuvant System (SAS), BD21 encapsulated OVA and BD21 conjugated OVA. […] 21 days after the boost, sera were collected for tittering by ELISA.

[2] = PBMCs from six healthy donors, 0.62, 1.25, 2.5 and 5 μM

CpG 7909 [CpG-B]
CpG concentration at which IL-6 levels saturate (human PBMCs; PBMCs from six healthy donors): around 1.25 μM | IFNα production (human PBMCs; [2]): little to none was detected | IL-6 secreted into culture supernatant (human PBMCs; [2]): low to moderate quantities

CpG ODN1826 [free CpG]
IL-6 production (C57BL/6 splenocytes): only detected in free CpG- or ACM-CpG-treated splenocytes | IL-12 (IL-12p70) production (C57BL/6 splenocytes): not detected even in neat culture supernatant | CD86 and CD80 activation marker expression on cDC2 [1]: significant increase in CD86 and CD80 expression on cDC2

B1: Ovalbumin (OVA) (protein, listed as Gallus gallus)
chain: MGSIGAASMEFCFDVFKELKVHHANENIFYCPIAIMSALAMVYLGAKDSTRTQINKVVRFDKLPGFGDSIEAQCGTSVNVHSSLRDILNQITKPNDVYSFSLASRLYAEERYPILPEYLQCVKELYRGGLEPINFQTAADQARELINSWVESQTNGIIRNVLQPSSVDSQTAMVLVNAIVFKGLWEKAFKDEDTQAMPFRVTEQESKPVQMMYQIGLFRVASMASEKMKILELPFASGTMSMLVLLPDEVSGLEQLESIINFEKLTEWTSSNVMEERKIKVYLPRMKMEEKYNLTSVLMAMGITDVFSSSANLSGISSAESLKISQAVHAAHAEINEAGREVVGSAEAGVDAASVSEEFRADHPFLFCIKHIATNAVLFFGRCVSP
IgG response / titer against OVA (ELISA) (C57bl/6 mice): not able to elicit an IgG response

Source: patent US20240108720A1, “SOLE USE OF POLYMERSOME ASSOCIATED ADJUVANT FOR STIMULATING AN IMMUNE RESPONSE” (priority 2021, published 2024)
